Data set [1] deals with mice. Description: Stress testing in mice, methodology of Aberg (U.S. Pat. No. 6,372,799). It is filed as in vivo. The conditions noted are these: preliminary results.
A further data set concerns animals. Put plainly: Cardiovascular parameters in animals. In kind it is in vivo. The conditions noted are these: concentrations corresponding to doses suitable for growth promotion.
Data set [2] deals with mice. Put plainly: Spontaneous motor activity studies in mice. It is filed as in vivo. The conditions noted are these: oral.
Data set [3] has as its system rats. The conditions noted are these: cited from earlier work.
A further data set has as its system livestock animals. Put plainly: Stress in livestock animals (applicant's findings). The conditions noted are these: in vivo.
Data set [4] relates to rats. Description: Neuropharmacological study in rats (Irwin test). In kind it is in vivo. The conditions noted are these: for drug-related stress, Irwin test: rats, oral.
In data set [5] the target is adrenergic β1(h) receptor (Homo sapiens, UniProt P08588). Put plainly: Affinity (Ki) for adrenergic β-receptors, β1. It is filed as binding.
In the next data set the test system is obese animals. Put plainly: Weight loss in obese animals. The conditions noted are these: in vivo.
The test system of another data set is pigs. The conditions noted are these: literature; cited from earlier work.
In data set [6] the test system is adrenergic beta-receptors in adipose tissue. The conditions noted are these: animals exposed to racemic ractopamine; cited from earlier work.
The target in data set [7] is adrenergic B3 (h) receptor (Homo sapiens, UniProt P13945). Put plainly: Affinity (Ki) for adrenergic β-receptors, β3. In kind it is binding.
The next data set has as its system adrenergic beta-receptor. The conditions noted are these: cited from earlier work.

Where a name gives a salt, the structure may show the parent alone.

Sequence of adrenergic B3 (h) receptor (P13945 whole entry): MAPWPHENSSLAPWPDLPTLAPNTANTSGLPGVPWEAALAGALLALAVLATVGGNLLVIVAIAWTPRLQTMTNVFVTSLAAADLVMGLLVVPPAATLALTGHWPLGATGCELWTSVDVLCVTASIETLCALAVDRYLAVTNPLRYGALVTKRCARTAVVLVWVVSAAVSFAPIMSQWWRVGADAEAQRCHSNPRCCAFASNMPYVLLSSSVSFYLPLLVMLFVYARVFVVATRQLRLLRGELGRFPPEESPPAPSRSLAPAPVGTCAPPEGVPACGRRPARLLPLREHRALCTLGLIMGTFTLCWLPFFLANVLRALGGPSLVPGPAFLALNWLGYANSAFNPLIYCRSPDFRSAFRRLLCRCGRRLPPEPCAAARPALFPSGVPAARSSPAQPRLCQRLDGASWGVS
Sequence of adrenergic β1(h) receptor (P08588 whole entry): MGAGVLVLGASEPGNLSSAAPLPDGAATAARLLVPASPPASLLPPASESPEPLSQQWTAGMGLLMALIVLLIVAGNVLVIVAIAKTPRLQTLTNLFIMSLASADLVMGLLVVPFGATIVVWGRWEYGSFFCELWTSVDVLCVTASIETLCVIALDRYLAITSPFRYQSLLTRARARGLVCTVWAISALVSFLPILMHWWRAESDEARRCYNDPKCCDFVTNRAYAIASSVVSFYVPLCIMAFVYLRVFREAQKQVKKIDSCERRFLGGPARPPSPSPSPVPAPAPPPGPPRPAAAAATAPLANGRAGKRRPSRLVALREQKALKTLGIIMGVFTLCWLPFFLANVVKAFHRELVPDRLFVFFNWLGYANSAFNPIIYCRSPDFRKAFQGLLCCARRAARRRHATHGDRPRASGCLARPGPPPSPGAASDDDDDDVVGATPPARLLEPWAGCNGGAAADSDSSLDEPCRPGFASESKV

Regarding `C[C@H](CCc1ccc(O)cc1)NC[C@H](O)c1ccc(O)cc1.Cl` (racemic) [RR-ractopamine, RR 4-Hydroxy-a [[[3-(4-hydroxyphenyl)-1-methylpropyl]amino]methyl]benzenemethanol hydrochloride], the “CNS-mediated stress, stress testing in mice” value in the data set on mice [1] is “not causing stress”. Further, the “effects on cardiovascular parameters” value in the data set on animals is “failed to reveal detrimental effects on cardiovascular parameters”. In addition, the “drug-related stress, spontaneous motor activity” value in the data set on mice [2] is reported as “no signs of drug-related stress”. In addition, the “potency rank among the four stereoisomers in vivo” value with rats [3] was “most potent”. Further, in the data set with livestock animals, the “stress as side effect in livestock animals” value is recorded as “does not cause this side effect in livestock animals”. Besides, the “drug-related stress, Irwin test” value in the data set on rats [4] is recorded as “do not show signs of drug-related stress”.

For orientation: Ki means the dissociation constant of the complex between target and ligand, obtained from inhibition or displacement. Low readings indicate a stronger hold on the target, high ones a looser hold on the target. Regarding `CC(CCc1ccc(O)cc1)NCC(O)c1ccc(O)cc1` (racemic) [Ractopamine, 4-hydroxy-a-[[[3-(4-hydroxyphenyl)-1-methylpropyl]amino]methyl]benzenemethanol hydrochloride], the Ki in data set [5] was determined as 260 nM. Further, the “weight loss in obese animals” value in the data set with obese animals is recorded as “cause weight loss in obese animals”. The “stress in pigs / livestock animals” value with pigs is “cause stress in livestock animals”. Besides, in [6], the “reduction of concentration of adrenergic beta-receptors in adipose tissue” value is listed as 50%. Further, the “drug-related stress, spontaneous motor activity” value in the data set on mice [2] was “drug-related and CNS-mediated (“psychological”) stress”. In data set [7], the affinity corresponds to a Ki of 14 µM and the “affinity for beta-3 receptors (in words)” value is on record as “negligible affinity for beta-3 receptors”. Besides, the “drug-related stress, Irwin test” value in the data set with rats [4] is listed as “demonstrate stress”.

Take `CC(CCc1ccc(O)cc1)NCC(O)c1ccc(O)cc1` (single isomer, unassigned) [RS-enantiomer]: the “adrenergic beta-receptor stimulating activity” value in the data set with adrenergic beta-receptor is given as “reduced beta-receptor activity when compared with RR-ractopamine”.

On to `C[C@H](CCc1ccc(O)cc1)NC[C@@H](O)c1ccc(O)cc1` (single isomer, unassigned) [SR-enantiomer], for which the “adrenergic beta-receptor stimulating activity” value in the data set on adrenergic beta-receptor was “reduced beta-receptor activity when compared with RR-ractopamine”.

With `C[C@@H](CCc1ccc(O)cc1)NC[C@@H](O)c1ccc(O)cc1` (single isomer, unassigned) [SS-enantiomer], the “adrenergic beta-receptor stimulating activity” value in the data set on adrenergic beta-receptor is recorded as “completely devoid of adrenergic beta-receptor stimulating activity”.

On to `CC(C)(C)NC[C@H](O)c1ccc(O)c(CO)c1` [R-salbutamol], for which, in the data set on pigs, the “stress in pigs / livestock animals” value is on record as “does not induce stress in pigs”. Besides, the “affinity for beta-3 receptors (in words)” value in [7] is “negligible affinity for beta-3 receptors”. Besides, the “CNS-effects related to stress in laboratory animals” value with rats [4] (laboratory animals) was “not causing CNS-effects related to stress in laboratory animals”.

The values above are taken from patent publication US20080070990A1, “USE OF RACTOPAMINE ENANTIOMERS” (STIRLING PRODUCTS LIMITED, priority 2006, published 2008).
